The target in experiment [1] is T1, Short transient receptor potential channel 4 (Mus musculus, UniProt Q9QUQ5).
T1 sequence (Q9QUQ5 whole entry): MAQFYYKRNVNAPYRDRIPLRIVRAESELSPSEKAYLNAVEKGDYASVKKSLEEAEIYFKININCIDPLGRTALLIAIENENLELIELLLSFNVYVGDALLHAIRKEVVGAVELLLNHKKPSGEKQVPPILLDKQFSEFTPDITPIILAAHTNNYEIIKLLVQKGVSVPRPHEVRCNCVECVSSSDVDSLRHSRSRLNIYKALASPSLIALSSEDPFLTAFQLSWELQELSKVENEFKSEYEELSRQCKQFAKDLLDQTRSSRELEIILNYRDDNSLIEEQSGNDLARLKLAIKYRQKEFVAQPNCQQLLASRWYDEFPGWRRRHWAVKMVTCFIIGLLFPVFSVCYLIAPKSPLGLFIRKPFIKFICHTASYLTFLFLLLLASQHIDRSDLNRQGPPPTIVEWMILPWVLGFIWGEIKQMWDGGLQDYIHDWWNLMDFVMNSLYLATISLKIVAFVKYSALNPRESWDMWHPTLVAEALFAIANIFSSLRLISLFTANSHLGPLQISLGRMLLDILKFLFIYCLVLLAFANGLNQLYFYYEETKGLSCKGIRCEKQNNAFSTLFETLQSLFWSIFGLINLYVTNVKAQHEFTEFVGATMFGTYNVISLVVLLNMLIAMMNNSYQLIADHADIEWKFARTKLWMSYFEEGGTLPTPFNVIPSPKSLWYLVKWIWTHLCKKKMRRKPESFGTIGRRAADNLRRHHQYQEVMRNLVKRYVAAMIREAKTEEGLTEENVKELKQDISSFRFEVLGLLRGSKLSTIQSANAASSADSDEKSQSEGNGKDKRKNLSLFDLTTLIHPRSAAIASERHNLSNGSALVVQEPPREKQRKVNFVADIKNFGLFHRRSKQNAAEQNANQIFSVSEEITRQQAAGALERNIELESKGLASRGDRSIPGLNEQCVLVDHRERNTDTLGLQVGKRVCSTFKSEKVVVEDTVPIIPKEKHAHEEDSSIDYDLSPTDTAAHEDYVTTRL
Nature of the experiment: mouse TRPC4 channel inhibitors, dose response, cell-based, HEK293 TRPC4/mu-opioid, Fluo-4 calcium (AID 434942).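 Also: potency of inhibitors blocking the TRPC4 calcium response.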 The experiment is classed as functional.

A short description of experiment [2]: A cytotoxicity screen of small molecule inhibitors of the PhoP region in Salmonella typhi identified in the primary screen. [Related pubchem assays: 1850, 1864, 1985 ]. The class given is functional.
Experiment [3] in a line: cells. The experiment is classed as functional.
Experiment [4] can be described thus: Vero E6 cell cytotoxicity, dose response, cytotoxicity control for non-replicating M. tuberculosis project, secondary assay (AID 492998). Conditions: Vero C1008. The experiment is classed as functional, VeroE6.
The nature of experiment [5]: THP-1 cell cytotoxicity, dose response, cytotoxicity control for non-replicating M. tuberculosis project (AID 489025). The experiment is classed as functional.
The target in another experiment is T2, Protein skinhead-1 (Caenorhabditis elegans, UniProt P34707).
T2 sequence (P34707 whole entry): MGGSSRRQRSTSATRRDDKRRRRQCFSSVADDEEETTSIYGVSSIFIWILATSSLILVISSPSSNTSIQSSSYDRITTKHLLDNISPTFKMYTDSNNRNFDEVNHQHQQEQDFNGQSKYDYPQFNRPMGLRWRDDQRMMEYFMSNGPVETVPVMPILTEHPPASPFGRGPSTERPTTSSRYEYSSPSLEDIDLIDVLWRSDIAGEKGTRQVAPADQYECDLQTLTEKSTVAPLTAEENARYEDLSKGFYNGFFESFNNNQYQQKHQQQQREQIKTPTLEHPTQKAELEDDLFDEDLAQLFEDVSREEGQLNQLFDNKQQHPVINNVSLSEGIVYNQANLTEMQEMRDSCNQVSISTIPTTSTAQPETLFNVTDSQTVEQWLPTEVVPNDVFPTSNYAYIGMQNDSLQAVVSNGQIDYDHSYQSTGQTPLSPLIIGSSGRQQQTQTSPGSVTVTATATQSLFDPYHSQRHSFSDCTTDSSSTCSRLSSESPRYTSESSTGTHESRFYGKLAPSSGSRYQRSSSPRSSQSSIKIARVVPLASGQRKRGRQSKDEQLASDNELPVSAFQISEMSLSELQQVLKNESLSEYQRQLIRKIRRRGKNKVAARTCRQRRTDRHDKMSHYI
The class given is functional.

Experiment [6] addresses T3, Sentrin-specific protease 8 (Homo sapiens, UniProt Q96LD8).
T3 sequence (Q96LD8 whole entry): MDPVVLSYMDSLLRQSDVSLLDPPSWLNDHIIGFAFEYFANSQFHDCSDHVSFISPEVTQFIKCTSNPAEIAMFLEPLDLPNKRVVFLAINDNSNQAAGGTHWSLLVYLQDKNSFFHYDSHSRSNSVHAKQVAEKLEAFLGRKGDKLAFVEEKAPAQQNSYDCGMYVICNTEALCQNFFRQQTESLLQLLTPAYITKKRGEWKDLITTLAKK
The class given is functional.

A short description of experiment [7]: HEp-2 cell cytotoxicity, dose response, cytotoxicity control for RSV inhibitor project, HTS (AID 2410). The class given is functional. Conditions: human respiratory syncytial virus.
The target of another experiment is T4, Caspase-3 (Homo sapiens, UniProt P42574).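 Also: Dose-response selectivity test against caspase-3 for candidate inhibitors of sentrin-specific proteases (SENPs).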
T4 sequence (P42574 whole entry): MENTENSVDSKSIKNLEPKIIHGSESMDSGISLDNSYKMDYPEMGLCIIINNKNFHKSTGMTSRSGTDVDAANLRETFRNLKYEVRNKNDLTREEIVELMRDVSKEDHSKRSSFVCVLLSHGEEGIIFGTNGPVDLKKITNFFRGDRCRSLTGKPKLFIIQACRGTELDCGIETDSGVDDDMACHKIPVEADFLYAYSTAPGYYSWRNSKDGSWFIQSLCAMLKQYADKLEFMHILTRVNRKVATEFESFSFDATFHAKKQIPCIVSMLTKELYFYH
The experiment is classed as functional.

Experiment [8] concerns the target T5, Sentrin-specific protease 6 (Homo sapiens, UniProt Q9GZR1).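 Also: Luminescence-based dose-response confirmatory assay of SENP6 inhibition, following up an ultra-high-throughput screen.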
T5 sequence (Q9GZR1 whole entry): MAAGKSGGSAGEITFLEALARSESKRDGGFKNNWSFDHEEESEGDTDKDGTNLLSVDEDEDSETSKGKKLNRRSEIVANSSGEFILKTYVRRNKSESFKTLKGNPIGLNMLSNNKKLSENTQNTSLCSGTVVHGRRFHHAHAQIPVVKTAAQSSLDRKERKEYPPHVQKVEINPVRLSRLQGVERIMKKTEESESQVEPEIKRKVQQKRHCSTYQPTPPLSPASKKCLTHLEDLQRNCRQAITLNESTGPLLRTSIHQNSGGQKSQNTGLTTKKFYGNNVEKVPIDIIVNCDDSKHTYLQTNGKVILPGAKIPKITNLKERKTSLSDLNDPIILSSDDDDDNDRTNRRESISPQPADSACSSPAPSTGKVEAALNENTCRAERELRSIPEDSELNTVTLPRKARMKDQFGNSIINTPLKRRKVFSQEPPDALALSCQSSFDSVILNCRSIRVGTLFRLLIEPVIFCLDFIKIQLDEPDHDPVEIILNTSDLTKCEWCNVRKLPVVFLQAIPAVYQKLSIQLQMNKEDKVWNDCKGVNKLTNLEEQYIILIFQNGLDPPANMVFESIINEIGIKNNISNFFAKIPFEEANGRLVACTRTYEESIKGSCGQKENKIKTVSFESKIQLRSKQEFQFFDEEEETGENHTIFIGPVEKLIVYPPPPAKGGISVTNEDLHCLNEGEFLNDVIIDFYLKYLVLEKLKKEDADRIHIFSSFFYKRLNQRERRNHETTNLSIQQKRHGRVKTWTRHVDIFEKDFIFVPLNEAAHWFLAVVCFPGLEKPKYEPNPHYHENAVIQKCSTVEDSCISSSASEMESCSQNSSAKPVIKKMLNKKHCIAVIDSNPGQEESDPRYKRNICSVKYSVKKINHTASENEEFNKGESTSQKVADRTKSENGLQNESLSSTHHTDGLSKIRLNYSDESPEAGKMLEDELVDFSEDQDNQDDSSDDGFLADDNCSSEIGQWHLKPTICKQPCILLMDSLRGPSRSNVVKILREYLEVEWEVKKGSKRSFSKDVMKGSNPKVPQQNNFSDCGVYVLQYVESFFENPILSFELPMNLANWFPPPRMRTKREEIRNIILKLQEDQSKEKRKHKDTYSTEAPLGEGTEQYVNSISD
The class given is functional.

Experiment [9] is described as follows: cells.
Experiment [10] concerns the target T6, Sentrin-specific protease 7 (Homo sapiens, UniProt Q9BQF6).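 Also: Luminescence-based dose-response confirmation of ultra-high-throughput screening hits, measuring inhibition of SENP7.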
T6 sequence (Q9BQF6 whole entry): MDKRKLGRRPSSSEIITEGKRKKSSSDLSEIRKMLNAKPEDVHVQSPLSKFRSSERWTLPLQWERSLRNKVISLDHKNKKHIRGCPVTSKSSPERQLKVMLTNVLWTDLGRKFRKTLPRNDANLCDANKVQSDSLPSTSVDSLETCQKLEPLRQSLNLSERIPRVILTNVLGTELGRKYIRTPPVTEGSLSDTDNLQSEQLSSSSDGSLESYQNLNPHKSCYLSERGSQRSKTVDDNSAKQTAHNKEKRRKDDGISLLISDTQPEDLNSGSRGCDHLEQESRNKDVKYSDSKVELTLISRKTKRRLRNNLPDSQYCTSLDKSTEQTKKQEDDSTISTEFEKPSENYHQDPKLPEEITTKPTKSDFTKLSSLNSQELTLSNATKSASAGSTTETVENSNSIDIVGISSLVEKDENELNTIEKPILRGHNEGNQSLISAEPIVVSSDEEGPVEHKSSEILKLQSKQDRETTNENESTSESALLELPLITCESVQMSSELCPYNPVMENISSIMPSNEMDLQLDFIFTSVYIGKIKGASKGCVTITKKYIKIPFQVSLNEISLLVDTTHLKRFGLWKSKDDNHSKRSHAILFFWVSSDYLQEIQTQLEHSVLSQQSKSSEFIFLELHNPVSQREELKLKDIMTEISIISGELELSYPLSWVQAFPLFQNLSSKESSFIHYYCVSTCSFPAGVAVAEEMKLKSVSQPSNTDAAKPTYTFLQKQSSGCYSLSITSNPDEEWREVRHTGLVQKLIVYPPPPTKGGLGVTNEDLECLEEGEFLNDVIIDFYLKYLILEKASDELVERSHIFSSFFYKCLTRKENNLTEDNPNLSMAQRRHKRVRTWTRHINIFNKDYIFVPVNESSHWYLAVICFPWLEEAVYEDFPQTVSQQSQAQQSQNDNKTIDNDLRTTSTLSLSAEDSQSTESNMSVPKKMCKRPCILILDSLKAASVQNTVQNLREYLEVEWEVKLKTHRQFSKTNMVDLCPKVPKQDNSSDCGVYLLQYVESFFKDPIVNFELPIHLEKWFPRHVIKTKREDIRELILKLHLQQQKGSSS
The class given is functional.

For the next experiment, the target named is Genome polyprotein (dengue virus type 2, UniProt P29990). Nature of the experiment: Dengue-2 NS5 methyltransferase inhibitors, primary screen, biochemical, confirmation dose response (AID 588689). The class given is functional.
Genome polyprotein, sequence (P29990 2492-3391 limits assumed): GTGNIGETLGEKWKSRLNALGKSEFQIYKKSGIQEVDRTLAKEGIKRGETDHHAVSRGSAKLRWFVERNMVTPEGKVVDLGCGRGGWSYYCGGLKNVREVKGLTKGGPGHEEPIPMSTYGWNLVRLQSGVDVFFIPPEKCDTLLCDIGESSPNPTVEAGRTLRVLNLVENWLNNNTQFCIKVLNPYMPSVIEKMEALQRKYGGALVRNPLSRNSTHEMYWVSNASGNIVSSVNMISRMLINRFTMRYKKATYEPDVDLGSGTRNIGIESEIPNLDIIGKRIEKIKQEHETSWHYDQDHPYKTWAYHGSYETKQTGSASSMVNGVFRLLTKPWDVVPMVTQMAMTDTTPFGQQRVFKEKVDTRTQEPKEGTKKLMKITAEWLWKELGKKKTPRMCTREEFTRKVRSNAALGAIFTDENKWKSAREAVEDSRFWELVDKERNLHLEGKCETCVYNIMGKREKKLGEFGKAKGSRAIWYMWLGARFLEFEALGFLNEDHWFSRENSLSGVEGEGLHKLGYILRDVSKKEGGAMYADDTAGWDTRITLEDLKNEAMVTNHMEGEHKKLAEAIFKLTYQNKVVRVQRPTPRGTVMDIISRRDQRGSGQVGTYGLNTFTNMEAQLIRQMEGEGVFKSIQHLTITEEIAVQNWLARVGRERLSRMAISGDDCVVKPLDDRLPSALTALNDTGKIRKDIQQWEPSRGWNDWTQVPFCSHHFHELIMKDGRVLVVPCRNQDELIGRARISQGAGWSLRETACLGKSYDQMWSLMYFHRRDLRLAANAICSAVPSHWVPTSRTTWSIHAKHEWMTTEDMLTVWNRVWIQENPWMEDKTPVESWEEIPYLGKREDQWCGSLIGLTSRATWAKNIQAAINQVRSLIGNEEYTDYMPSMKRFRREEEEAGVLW
For experiment [11], the target named is Glucose-6-phosphate 1-dehydrogenase (Homo sapiens, UniProt P11413). Briefly: human G6PD enzyme inhibitors, dose response, selectivity assay for P. falciparum G6PD inhibitor project, biochemical, fluorescence (AID 504792). The class given is functional.
Glucose-6-phosphate 1-dehydrogenase, sequence (P11413 whole entry): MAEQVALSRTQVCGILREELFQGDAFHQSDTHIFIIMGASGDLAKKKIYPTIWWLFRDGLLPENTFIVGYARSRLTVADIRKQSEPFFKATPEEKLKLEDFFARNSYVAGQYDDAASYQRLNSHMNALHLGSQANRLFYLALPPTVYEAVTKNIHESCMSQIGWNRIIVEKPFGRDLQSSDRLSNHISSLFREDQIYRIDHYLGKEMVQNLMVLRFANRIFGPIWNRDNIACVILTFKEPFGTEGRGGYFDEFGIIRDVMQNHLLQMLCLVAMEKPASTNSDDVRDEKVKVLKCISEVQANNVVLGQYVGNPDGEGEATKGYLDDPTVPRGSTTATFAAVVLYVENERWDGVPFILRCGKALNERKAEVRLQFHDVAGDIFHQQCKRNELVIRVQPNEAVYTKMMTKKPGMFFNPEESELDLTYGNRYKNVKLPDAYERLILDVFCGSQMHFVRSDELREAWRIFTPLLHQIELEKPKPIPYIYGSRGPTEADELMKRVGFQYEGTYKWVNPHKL
The target of a further experiment is Nonstructural protein 1 (Influenza A virus, UniProt Q194T2). The experiment is classed as functional, Influenza A virus (A/California/07/2009(H1N1)).
Nonstructural protein 1, sequence (Q194T2 whole entry): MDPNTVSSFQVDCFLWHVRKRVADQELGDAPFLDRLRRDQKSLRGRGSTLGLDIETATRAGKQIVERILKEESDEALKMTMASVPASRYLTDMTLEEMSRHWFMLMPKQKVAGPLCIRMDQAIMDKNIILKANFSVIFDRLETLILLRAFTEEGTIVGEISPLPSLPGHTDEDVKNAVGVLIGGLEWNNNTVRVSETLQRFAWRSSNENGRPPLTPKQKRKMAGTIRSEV

The values below come from ChEMBL document CHEMBL1201862, “PubChem BioAssay data set” (2004).

In general, EC50 refers to the concentration that produces a half-maximal response. Broadly, the IC50 is the concentration that gives 50% inhibition. One may read the CC50 as the concentration that lowers cell viability or growth by half.

The source made the active and inactive calls. A value given as a limit tells only on which side of the number the result lay.

`O=C(c1ccc(Cl)c(Cl)c1)N(Cc1ccco1)c1ccc(O)cc1`: the concentration for a half-maximal effect (EC50) in experiment [1] was 8.41 µM (active).

Turning to `COc1ccc(Cn2nnnc2C(c2cc3ccc(OC)cc3nc2O)N2CCC(C)CC2)cc1` (centres undefined), the EC50 in [2] is > 50 µM (active).

On to `OCC1(CCc2ccccc2)CCN(Cc2cc(Cl)ccc2O)CC1`, for which the EC50 in experiment [1] was 9.44 µM (active).

As for `Fc1ccc(CN2CCC(Cc3ccccc3)CC2)cc1F`, the 50% effective concentration (EC50) in experiment [1] was 4.73 µM (active).

Consider `C=CCc1ccc(OCC(O)CN2CCN(Cc3ccc(Cl)cc3)CC2)c(OC)c1` (centres undefined), for which the IC50 in “cells [3]” is 23.3 µM (active). Further, the CC50 in [4] was > 20 µM (active); in [5] it was > 40 µM (active).

On to `Cc1cc(C)nc(N=C(N)NC2CCCCC2)n1`, for which the EC50 in experiment [1] is 4.22 µM (active).

Consider `O=C(c1ccco1)N1CCN(C/C=C/c2ccccc2)CC1`, for which the EC50 in experiment [1] was 0.596 µM (active). The IC50 on Protein skinhead-1 was > 100 µM (inactive).

For the compound `N#Cc1nc(COc2ccc(Br)cc2)oc1NCCCn1ccnc1`, the EC50 in [2] was > 50 µM (active).

In the case of `CN(C)C(=O)COC(=O)c1ccccc1Nc1ccc(SC(F)F)cc1`, the IC50 was 17.8 µM (active) in [6]; 28.2 µM (active) at Caspase-3; 12.8 µM (active) in experiment [8]; 4.77 µM (active) in “cells [9]”; 4.9 µM (active) in experiment [10]. Further, the CC50 in [7] is 8.89 µM (active).

Regarding `CSC1=NC2(C)CCCCC2C12C=CC(=O)C=C2` (centres undefined), in experiment [2], the EC50 is > 50 µM (active).

Turning to `Oc1cc(CNCc2ccccc2)c(O)cc1CNCc1ccccc1`, the half-inhibitory concentration (IC50) was 37.4 µM (active) on Genome polyprotein and > 80 µM (inactive) in experiment [11].

As to `O=C1NCCCC1C(=O)N/N=C/c1cc([N+](=O)[O-])ccc1O` (centres undefined), on Nonstructural protein 1, the concentration for half-maximal inhibition (IC50) was 16.8 µM (active). Besides, the EC50 in experiment [2] was > 50 µM (active).

Regarding `COc1cccc(/C=N/NC(=O)c2c(C)nc3ccc(Br)cn23)c1`, the IC50 in experiment [11] was 36 µM (inactive).

For the compound `Cc1cc(Cl)ccc1OCC(=O)N/N=C/c1ccncc1`, in [2], the EC50 is > 50 µM (active).
